Where a name gives a salt, the structure may show the parent alone.
Target: human FLAP (Homo sapiens (Human), UniProt P20292)
Assay: FLAP binding assay (HTRF)
Settings: human FLAP-containing membranes, HTRF format; average of two assay plates, duplicates; read-out: FLAP Binding wild type HTRF Ki
Method: (§1) The ability of the compounds of the present invention to treat a FLAP-mediated disease and/or disorder, or associated symptoms or complications thereof, was determined using the following procedures. Binding assay data represent the average value obtained from two different assay plates, with samples run in duplicate on each plate. Human whole blood assay data represent a single replicate on an assay plate using whole blood from at least one healthy donor.
Data are expressed as a HTRF ratio.

Chain of human FLAP (P20292 whole entry): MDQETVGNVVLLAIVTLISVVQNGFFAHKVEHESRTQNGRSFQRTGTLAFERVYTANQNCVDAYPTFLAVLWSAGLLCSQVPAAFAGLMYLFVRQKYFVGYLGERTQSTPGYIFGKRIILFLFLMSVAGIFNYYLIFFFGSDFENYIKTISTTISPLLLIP

Row | Ki [nM] | Compound
1 | 1940 | COc1c(C2CCC2)ccc(-c2cnc3[nH]cnc3n2)c1F [Example 182, 5-(4-cyclobutyl-2-fluoro-3-methoxyphenyl)-1H-imidazo[4,5-b]pyrazine]
2 | 2500 | COc1c(Br)ccc(-c2cnc(N)cn2)c1F [Example 210, 5-(4-bromo-2-fluoro-3-methoxyphenyl)-pyrazin-2-amine]
3 | 527 | COc1c(C2CCCC2)ccc(-c2cnc(N)cn2)c1F [Example 211, 5-(4-Cyclopentyl-2-fluoro-3-methoxyphenyl)pyrazin-2-amine]
4 | 866 | Nc1cnc(-c2ccc(Cl)c(OCc3ccccc3)c2F)cn1 [Example 216, 5-[3-(Benzyloxy)-4-chloro-2-fluorophenyl]pyrazin-2-amine]
5 | 1250 | Nc1cnc(-c2ccc(C3CCC3)c(OCc3ccccc3)c2)cn1 [Example 217, 5-[3-(Benzyloxy)-4-cyclobutylphenyl]pyrazin-2-amine]
6 | > 10000 | COc1c(C2CCC2)ccc(-c2ccc(N)nn2)c1F [Example 219, 6-(4-cyclobutyl-2-fluoro-3-methoxyphenyl)pyridazin-3-amine]
7 | 593 | Oc1c(C2CCC2)ccc(-c2cc3cc[nH]c3nn2)c1F [Example 221, 6-cyclobutyl-2-fluoro-3-(7H-pyrrolo[2,3-c]pyridazin-3-yl)phenol]
8 | > 10000 | Nc1ccc(-c2ccc(C3CCC3)c(O)c2F)nn1 [Example 223, 3-(6-aminopyridazin-3-yl)-6-cyclobutyl-2-fluorophenol]
9 | 2140 | Nc1ccc(-c2ccc(C3CCC3)c(Oc3ncccn3)c2F)nn1 [Example 231, 6-(4-cyclobutyl-2-fluoro-3-(pyrimidin-2-yloxy)phenyl)pyridazin-3-amine]
10 | 1590 | COc1cc(Oc2c(C3CCC3)ccc(-c3ccc(N)nn3)c2F)ncn1 [Example 232, 6-(4-cyclobutyl-2-fluoro-3-((6-methoxypyrimidin-4-yl)oxy)phenyl)pyridazin-3-amine]
11 | 1680 | Nc1ccc(-c2ccc(C3CCC3)c(Oc3cc(O)ncn3)c2F)nn1 [Example 233, 6-(3-(6-aminopyridazin-3-yl)-6-cyclobutyl-2-fluorophenoxy)pyrimidin-4-ol]
12 | > 10000 | Nc1cnc(-c2ccc(C3CCC3)c(OCC3CCOCC3)c2F)cn1 [Example 264, 5-[4-Cyclobutyl-2-fluoro-3-(tetrahydro-2H-pyran-4-ylmethoxy)phenyl]pyrazin-2-amine]
13 | > 10000 | CS(=O)(=O)c1cc(C#N)ccc1Oc1c(C2CCC2)ccc(-c2cnc(N)cn2)c1F [Example 265, 4-[3-(5-Aminopyrazin-2-yl)-6-cyclobutyl-2-fluorophenoxy]-3-(methylsulfonyl)benzonitrile]
14 | > 10000 | Nc1cnc(-c2ccc(C3CCC3)c(Oc3ccc(C(F)(F)F)cc3C(F)(F)F)c2F)cn1 [Example 266, 5-{3-[2,4-Bis(trifluoromethyl)phenoxy]-4-cyclobutyl-2-fluorophenyl}pyrazin-2-amine]
15 | > 10000 | CN(C)CCCOc1c(C2CCC2)ccc(-c2cnc(N)cn2)c1F [Example 267, 5-{4-Cyclobutyl-3-[3-(dimethylamino)propoxy]-2-fluorophenyl}pyrazin-2-amine]
16 | > 10000 | CN(C)CCOc1c(C2CCC2)ccc(-c2cnc(N)cn2)c1F [Example 268, 5-{4-Cyclobutyl-3-[2-(dimethylamino)ethoxy]-2-fluorophenyl}pyrazin-2-amine]

Row | Ki [nM] | Compound
17 | 800 | Nc1ccnc(Oc2c(C3CCC3)ccc(-c3cc4cc[nH]c4nn3)c2F)n1 [Example 270, 2-[6-Cyclobutyl-2-fluoro-3-(7H-pyrrolo[2,3-c]pyridazin-3-yl)phenoxy]pyrimidin-4-amine]
18 | > 10000 | N#Cc1nc(N)ncc1Oc1c(C2CCC2)ccc(-c2cnc(N)cn2)c1F [Example 273, 2-Amino-5-[3-(5-aminopyrazin-2-yl)-6-cyclobutyl-2-fluorophenoxy]pyrimidine-4-carbonitrile]
19 | 97.6 | Nc1cnc(-c2ccc(C3CCC3)c(OCc3nc4ccccc4s3)c2F)cn1 [Example 283, 5-[3-(1,3-Benzothiazol-2-ylmethoxy)-4-cyclobutyl-2-fluorophenyl]pyrazin-2-amine trifluoroacetic acid salt]
20 | > 10000 | Cn1cnc(COc2c(C3CCC3)ccc(-c3cnc(N)cn3)c2F)c1 [Example 284, 5-{4-Cyclobutyl-2-fluoro-3-[(1-methyl-1H-imidazol-4-yl)methoxy]phenyl}pyrazin-2-amine trifluoroacetic acid salt]
21 | > 10000 | Cn1cncc1COc1c(C2CCC2)ccc(-c2cnc(N)cn2)c1F [Example 285, 5-{4-Cyclobutyl-2-fluoro-3-[(1-methyl-1H-imidazol-5-yl)methoxy]phenyl}pyrazin-2-amine trifluoroacetic acid salt]
22 | 365 | Nc1cnc(-c2ccc(C3CCC3)c(OCc3cccnn3)c2F)cn1 [Example 288, 5-[4-Cyclobutyl-2-fluoro-3-(pyridazin-3-ylmethoxy)phenyl]pyrazin-2-amine trifluoroacetic acid salt]
23 | 691 | NCCOc1c(C2CCC2)ccc(-c2cnc(N)cn2)c1F [Example 294, 5-[3-(2-aminoethoxy)-4-cyclobutyl-2-fluorophenyl]pyrazin-2-amine]
24 | > 10000 | Nc1cnc(-c2ccc(C3CCC3)c(OCC3CCNCC3)c2F)cn1 [Example 298, 5-[4-Cyclobutyl-2-fluoro-3-(piperidin-4-ylmethoxy)phenyl]pyrazin-2-amine hydrogen chloride salt]
25 | > 10000 | Nc1cnc(-c2ccc(C3CCC3)c(OCC3CNC3)c2F)cn1 [Example 301, 5-[3-(Azetidin-3-ylmethoxy)-4-cyclobutyl-2-fluorophenyl]pyrazin-2-amine]
26 | > 10000 | Cc1ccc(-c2cnc(N)cn2)c(F)c1Oc1ncccn1 [Example 314, 5-[2-Fluoro-4-methyl-3-(pyrimidin-2-yloxy)phenyl]pyrazin-2-amine]
27 | 1360 | Cc1ccc(-c2cnc(N)cn2)c(F)c1Oc1nccc(N)n1 [Example 315, 2-[3-(5-Aminopyrazin-2-yl)-2-fluoro-6 methylphenoxy]pyrimidin-4-amine]
28 | 289 | CCc1ccc(-c2cnc(N)cn2)c(F)c1Oc1ncccn1 [Example 316, 5-[4-Ethyl-2-fluoro-3-(pyrimidin-2-yloxy)phenyl]pyrazin-2-amine]
29 | 573 | CC(C)CCc1ccc(-c2cnc(N)cn2)c(F)c1Oc1ncccn1 [Example 322, 5-(2-Fluoro-4-isopentyl-3-(pyrimidin-2 yloxy)phenyl)pyrazin-2-amine]
30 | 358 | Nc1cnc(-c2ccc(CC3CCCCC3)c(Oc3nccc(N)n3)c2F)cn1 [Example 326, 2-(3-(5-Aminopyrazin-2-yl)-6-(cyclohexylmethyl)-2-fluorophenoxy)pyrimidin-4-amine]
31 | 528 | CC(C)CCc1ccc(-c2cnc(N)cn2)c(F)c1Oc1nccc(N)n1 [Example 327, 2-(3-(5-Aminopyrazin-2-yl)-2-fluoro-6-isopentylphenoxy)pyrimidin-4-amine]

Row | Compound | Ki [nM]
32 | CC(C)(C)c1ccc(-c2cnc(N)cn2)cc1OCc1ccccc1 [Example 215, 5-[3-(Benzyloxy)-4-tert-butylphenyl]pyrazin-2-amine] | 620
33 | Cn1ccnc1COc1c(C2CCC2)ccc(-c2cnc(N)cn2)c1F [Example 280, 5-{4-Cyclobutyl-2-fluoro-3-[(1-methyl-1H-imidazol-2-yl)methoxy]phenyl}pyrazin-2-amine trifluoroacetic acid salt] | > 10000

Test system: leukotriene pathway in human whole blood (LTB4 levels)
Assay: Human whole blood assay (LTB4)
Type: cell-based
Settings: human whole blood diluted 1:1 in RPMI, stimulated with calcium ionophore A23187; single replicate
Method: as §1
An in vitro cellular assay was performed using human whole blood collected in heparin-containing tubes, which was used to test the ability of compounds to modulate the leukotriene pathway in human whole blood. The blood was diluted 1:1 in RPMI medium, pre-incubated for 15 min at 37° Celsius with test compounds at various concentrations, and then stimulated with calcium ionophore, A23187 (7 μg/mL), for 30 min at 37° Celsius. The samples were then centrifuged and plasma was removed. The plasma was diluted in assay buffer and LTB4 levels were measured using a commercial kit (Enzo Life Sciences). The concentration of each compound that was required for half-maximal inhibition (modulation) of recombinant enzyme activity (IC50) was calculated by a 4-parameter equation using the program GraphPad Prism (GraphPad software).

Row | IC50 [nM] | Compound
34 | 771 | 2-[3-(Benzyloxy)-4-cyclobutyl-2- fluorophenyl]-5H-pyrrolo[2,3-b]pyrazine [Example 177]
35 | 644 | Nc1cnc(-c2ccc(C3CCC3)c(OCC(O)CNc3ncccn3)c2F)cn1 (racemic) [Example 56, racemic 1-(3-(5-Aminopyrazin-2-yl)-6-cyclobutyl-2-fluorophenoxy)-3-(pyrimidin-2-ylamino)propan-2-ol]
36 | 732 | Nc1cnc(-c2ccc(C3CCC3)c(OCC(O)Cn3cccn3)c2F)cn1 (racemic) [Example 60, racemic 1-(3-(5-Aminopyrazin-2-yl)-6-cyclobutyl-2-fluorophenoxy)-3-(1H-pyrazol-1-yl)propan-2-ol]
37 | 107 | N#Cc1cnn(CC(O)COc2c(C3CCC3)ccc(-c3cnc(N)cn3)c2F)c1N (racemic) [Example 65, racemic 5-Amino-1-(3-(3-(5-aminopyrazin-2-yl)-6-cyclobutyl-2-fluorophenoxy)-2-hydroxypropyl)-1H-pyrazole-4-carbonitrile]
38 | 727 | Nc1cnc(-c2ccc(C3CCC3)c(OCC(O)CNc3ccn[nH]3)c2F)cn1 (racemic) [Example 67, racemic 1-((1H-Pyrazol-5-yl)amino)-3-(3-(5-aminopyrazin-2-yl)-6-cyclobutyl-2-fluorophenoxy)propan-2-ol]
39 | 1220 | CS(=O)(=O)c1cccc(COc2c(C3CCC3)ccc(-c3cnc(N)cn3)c2F)c1 [Example 6, 5-(4-Cyclobutyl-2-fluoro-3-{[3-(methylsulfonyl)benzyl]oxy}phenyl)-pyrazin-2-amine]
40 | 1410 | Nc1cnc(-c2ccc(C3CCC3)c(OCc3ccc(F)c(F)c3)c2F)cn1 [Example 33, 5-{4-Cyclobutyl-3-[(3,4-difluorobenzyl)oxy]-2-fluorophenyl}pyrazin-2-amine]

Source: US9073876B2, “Flap modulators” (JANSSEN PHARMACEUTICA NV, priority 2013, dated 2015)
